This is an account of results in patent publication US20180170904A1, “PYRIDIN-3-YL ACETIC ACID DERIVATIVES AS INHIBITORS OF HUMAN IMMUNODEFICIENCY VIRUS REPLICATION” (priority 2015, published 2018).

Where two headings read alike, the source gives them in different places. Where only a bound is given, the exact number is not on record here.

For the assay, the system named is NL-RLuc virus (recombinant NL4-3 proviral clone with Renilla Luciferase gene). The assay can be described thus: Inhibition of HIV replication (NL-RLuc reporter virus in MT-2 cells). Type of assay: cell-based. The procedure, abridged:
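Antiviral EC50 came from luciferase signal after 5-day multicycle replication of NL-RLuc virus in MT-2 cells with serially diluted compound (RPMI 1640, 10% heat-inactivated FBS), fitted by the median effect equation over at least 2 experiments.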

[1] abbreviates: Renilla, NL43, 120 h, read-out: Activity.
The mark [2] stands for this setting: MT-2 cells infected with NL-RLuc virus, 5 days of incubation, luciferase readout, read-out: Activity.

As for `Cc1nc(C)c([C@H](OC(C)(C)C)C(=O)O)c(N2CCC(C)(C)CC2)c1-c1ccc(C=Cc2ccc(F)cc2)cc1` [Example 84, (S)-2-(tert-Butoxy)-2-(4-(4,4-dimethylpiperidin-1-yl)-5-(4-(4-fluorostyryl)phenyl)-2,6-dimethylpyridin-3-yl)acetic acid], the EC50 is, setting by setting: under setting [1], 0.1 to 1 µM; (Renilla, NL43, 120 h, read-out: EC50 μM) 0.126 µM.

As to `Cc1nc(C)c([C@H](OC(C)(C)C)C(=O)O)c(N2CCC(C)(C)CC2)c1-c1ccc(CCc2ccc(F)cc2)cc1` [Example 85, (S)-2-(tert-Butoxy)-2-(4-(4,4-dimethylpiperidin-1-yl)-5-(4-(4-fluorophenethyl)-phenyl)-2,6-dimethylpyridin-3-yl)acetic acid], the EC50 under setting [1] was less than 0.1 µM.

For `Cc1nc(C)c([C@H](OC(C)(C)C)C(=O)O)c(N2CCC(C)(C)CC2)c1-c1ccc(C(=O)NC(c2ccccc2)C(F)(F)F)cc1` (stereo partly drawn) [Example 88, (2S)-2-(tert-Butoxy)-2-(4-(4,4-dimethylpiperidin-1-yl)-2,6-dimethyl-5-(4-((2,2,2-trifluoro-1-phenylethyl)carbamoyl)phenyl)pyridin-3-yl)acetic acid], under setting [1], the EC50 is less than 0.1 µM.

As for “(S)-2-(tert-Butoxy)-2-(4-(4,4-dimethylpiperidin-1-yl)-5-(3-(1-(4-fluorobenzyl)-1H-tetrazol-5-yl)phenyl)-2,6-dimethylpyridin-3-yl)acetic acid and/or (S)-2-(tert-Butoxy)-2-(4-(4,4-dimethylpiperidin-1-yl)-5-(3-(2-(4-fluorobenzyl)-2H-tetrazol-5-yl)phenyl)-2,6-dimethylpyridin-3-yl)acetic acid [Example 87]”, under setting [2], the EC50 was less than 0.1 µM.

On to “(S)-2-(tert-Butoxy)-2-(4-(4,4-dimethylpiperidin-1-yl)-5-(4-(1-(4-fluorobenzyl)-1H-tetrazol-5-yl)phenyl)-2,6-dimethylpyridin-3-yl)acetic acid and/or (S)-2-(tert-Butoxy)-2-(4-(4,4-dimethylpiperidin-1-yl)-5-(4-(2-(4-fluorobenzyl)-2H-tetrazol-5-yl)phenyl)-2,6-dimethylpyridin-3-yl)acetic acid [Example 86]”, for which the EC50 under setting [2] is less than 0.1 µM.
